{
  "source": "ChEMBL document CHEMBL1201862",
  "about": "“PubChem BioAssay data set” (2004)",
  "key": {"Beta Lactamase": {"target": "Beta Lactamase (Pseudomonas aeruginosa, UniProt Q932Y6)", "sequence (Q932Y6 whole entry)": "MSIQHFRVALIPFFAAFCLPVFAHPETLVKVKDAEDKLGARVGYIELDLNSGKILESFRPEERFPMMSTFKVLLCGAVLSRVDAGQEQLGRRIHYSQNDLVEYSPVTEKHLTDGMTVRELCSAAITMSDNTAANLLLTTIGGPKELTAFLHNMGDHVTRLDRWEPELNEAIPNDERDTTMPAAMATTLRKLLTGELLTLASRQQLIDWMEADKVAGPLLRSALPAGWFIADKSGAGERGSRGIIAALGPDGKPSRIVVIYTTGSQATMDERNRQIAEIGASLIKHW"}, "[1]": {"target": "T1, Apoptotic protease-activating factor 1 (Homo sapiens, UniProt O14727)", "T1 sequence (O14727 whole entry)": "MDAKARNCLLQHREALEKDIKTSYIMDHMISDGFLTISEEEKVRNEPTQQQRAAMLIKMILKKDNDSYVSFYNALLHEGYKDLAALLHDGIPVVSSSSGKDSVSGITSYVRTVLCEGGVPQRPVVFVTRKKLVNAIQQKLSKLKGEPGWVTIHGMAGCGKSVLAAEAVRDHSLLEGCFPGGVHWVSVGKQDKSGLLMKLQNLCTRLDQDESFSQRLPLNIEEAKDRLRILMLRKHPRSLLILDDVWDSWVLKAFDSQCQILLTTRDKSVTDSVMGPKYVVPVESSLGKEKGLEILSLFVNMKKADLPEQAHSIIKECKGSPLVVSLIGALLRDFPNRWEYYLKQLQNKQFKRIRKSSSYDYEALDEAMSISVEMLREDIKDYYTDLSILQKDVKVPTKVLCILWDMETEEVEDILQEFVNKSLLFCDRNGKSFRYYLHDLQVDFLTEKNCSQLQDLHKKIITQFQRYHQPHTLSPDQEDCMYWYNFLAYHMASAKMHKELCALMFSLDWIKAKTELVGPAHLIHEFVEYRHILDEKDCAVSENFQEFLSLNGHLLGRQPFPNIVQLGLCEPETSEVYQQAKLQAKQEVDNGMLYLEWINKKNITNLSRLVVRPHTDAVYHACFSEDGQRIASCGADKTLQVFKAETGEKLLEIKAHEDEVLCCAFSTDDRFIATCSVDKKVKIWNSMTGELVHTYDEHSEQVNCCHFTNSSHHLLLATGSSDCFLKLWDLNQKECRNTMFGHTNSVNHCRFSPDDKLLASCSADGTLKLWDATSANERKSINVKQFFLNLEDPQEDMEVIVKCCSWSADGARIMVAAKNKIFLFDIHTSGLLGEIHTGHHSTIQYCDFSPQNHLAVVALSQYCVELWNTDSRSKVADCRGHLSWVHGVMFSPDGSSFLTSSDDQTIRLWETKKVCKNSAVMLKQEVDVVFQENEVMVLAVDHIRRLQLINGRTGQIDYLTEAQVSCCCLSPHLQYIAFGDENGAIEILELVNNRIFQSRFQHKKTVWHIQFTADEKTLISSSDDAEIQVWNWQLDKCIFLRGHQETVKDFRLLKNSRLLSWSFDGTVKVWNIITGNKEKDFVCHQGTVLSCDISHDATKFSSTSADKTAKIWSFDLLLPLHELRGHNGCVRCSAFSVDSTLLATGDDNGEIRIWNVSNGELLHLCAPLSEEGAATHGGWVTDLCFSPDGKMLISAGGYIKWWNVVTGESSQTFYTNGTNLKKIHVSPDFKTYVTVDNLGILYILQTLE", "type": "functional"}, "Beta-lactamase [2]": {"target": "Beta-lactamase (Pseudomonas aeruginosa, UniProt Q79MP6)", "sequence (Q79MP6 whole entry)": "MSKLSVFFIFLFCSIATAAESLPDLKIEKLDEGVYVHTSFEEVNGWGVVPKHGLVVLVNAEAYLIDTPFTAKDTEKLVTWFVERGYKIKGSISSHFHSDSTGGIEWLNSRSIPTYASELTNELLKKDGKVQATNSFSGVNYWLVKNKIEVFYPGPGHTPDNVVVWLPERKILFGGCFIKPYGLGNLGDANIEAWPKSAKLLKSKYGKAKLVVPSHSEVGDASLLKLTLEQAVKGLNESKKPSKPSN"}, "[3]": {"target": "T1, Apoptotic protease-activating factor 1", "experiment": "SAR analysis of small molecule inhibitors of Apaf-1 in a Fluorescent assay.", "type": "functional", "conditions": "read-out: IC50_Mean"}, "Beta-lactamase [4]": {"target": "Beta-lactamase (Salmonella choleraesuis (strain SC-B67), UniProt Q5J463)", "sequence (Q5J463 whole entry)": "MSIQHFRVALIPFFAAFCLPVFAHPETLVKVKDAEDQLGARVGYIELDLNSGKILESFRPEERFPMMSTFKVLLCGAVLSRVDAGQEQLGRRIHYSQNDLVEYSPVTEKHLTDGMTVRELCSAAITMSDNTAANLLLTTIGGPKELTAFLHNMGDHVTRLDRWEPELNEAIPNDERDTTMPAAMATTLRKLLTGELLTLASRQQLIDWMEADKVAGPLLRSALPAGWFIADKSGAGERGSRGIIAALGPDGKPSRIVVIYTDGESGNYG"}, "[5]": {"target": "T2, Ubiquitin-conjugating enzyme E2 N (Homo sapiens, UniProt P61088)", "T2 sequence (P61088 whole entry)": "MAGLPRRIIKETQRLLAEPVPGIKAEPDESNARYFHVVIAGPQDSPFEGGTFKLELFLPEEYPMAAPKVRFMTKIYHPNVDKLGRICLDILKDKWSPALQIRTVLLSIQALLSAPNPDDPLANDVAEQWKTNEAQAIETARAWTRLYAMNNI", "type": "functional"}, "Bcl-2-related protein A1": {"target": "T3, Bcl-2-related protein A1 (Mus musculus, UniProt Q07440)", "T3 sequence (Q07440 whole entry)": "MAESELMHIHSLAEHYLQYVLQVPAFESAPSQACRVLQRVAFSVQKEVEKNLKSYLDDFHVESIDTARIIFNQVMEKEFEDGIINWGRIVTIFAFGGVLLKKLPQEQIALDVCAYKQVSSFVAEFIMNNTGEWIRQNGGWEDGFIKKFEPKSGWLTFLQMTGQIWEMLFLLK", "type": "functional"}, "[6]": {"target": "T2, Ubiquitin-conjugating enzyme E2 N", "type": "functional", "remark": "listed apart in the source"}, "[7]": {"target": "E3 ubiquitin-protein ligase XIAP (Homo sapiens, UniProt P98170)", "sequence (P98170 whole entry)": "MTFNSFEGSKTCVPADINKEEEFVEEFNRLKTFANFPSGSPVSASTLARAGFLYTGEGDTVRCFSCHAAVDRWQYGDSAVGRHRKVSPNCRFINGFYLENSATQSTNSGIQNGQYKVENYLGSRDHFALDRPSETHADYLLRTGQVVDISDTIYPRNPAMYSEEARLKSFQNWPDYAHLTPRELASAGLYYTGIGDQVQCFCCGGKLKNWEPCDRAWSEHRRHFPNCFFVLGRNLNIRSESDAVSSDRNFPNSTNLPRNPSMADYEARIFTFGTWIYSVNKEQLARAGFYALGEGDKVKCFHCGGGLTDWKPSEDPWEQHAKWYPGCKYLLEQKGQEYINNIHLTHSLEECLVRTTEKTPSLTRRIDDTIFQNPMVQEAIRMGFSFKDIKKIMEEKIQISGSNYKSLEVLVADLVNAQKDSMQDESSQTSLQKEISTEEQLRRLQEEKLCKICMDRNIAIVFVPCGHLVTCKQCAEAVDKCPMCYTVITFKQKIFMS", "experiment": "Counter Screen using XIAP-Bir3 for Chemical Antagonists of Bir1/2 domains of IAP-family anti-apoptotic proteins. [Related pubchem assays (depositor defined):AID1018, AID1449, AID1514, AID1638, AID1749, AID1750, AID488957, AID488963]"}, "[8]": {"target": "T1, Apoptotic protease-activating factor 1", "experiment": "SAR analysis of small molecule Activators of Apaf-1 in a Fluorescent assay - set 2.", "type": "functional", "conditions": "read-out: EC50_Mean"}, "[9]": {"experiment": "SAR analysis of small molecule activators of Apaf-1 using a LZ-Caspase-9/Caspase-3 Fluorescent Selectivity assay - Set 2.", "type": "functional", "conditions": "read-out: EC50_Mean"}, "[10]": {"target": "Glycogen synthase kinase-3 alpha (Homo sapiens, UniProt P49840)", "sequence (P49840 whole entry)": "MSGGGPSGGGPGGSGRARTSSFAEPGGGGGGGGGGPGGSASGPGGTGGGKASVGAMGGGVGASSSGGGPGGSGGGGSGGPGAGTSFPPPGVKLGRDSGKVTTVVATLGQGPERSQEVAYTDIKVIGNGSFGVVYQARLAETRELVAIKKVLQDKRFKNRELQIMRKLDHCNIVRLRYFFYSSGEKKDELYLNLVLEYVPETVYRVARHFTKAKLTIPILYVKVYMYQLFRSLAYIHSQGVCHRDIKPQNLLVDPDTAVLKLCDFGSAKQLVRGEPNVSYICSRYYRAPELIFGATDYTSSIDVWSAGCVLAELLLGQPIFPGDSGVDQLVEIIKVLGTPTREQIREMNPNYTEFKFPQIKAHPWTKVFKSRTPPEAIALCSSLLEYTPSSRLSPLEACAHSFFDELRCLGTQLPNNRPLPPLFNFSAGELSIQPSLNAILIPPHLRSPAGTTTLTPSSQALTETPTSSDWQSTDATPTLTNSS", "experiment": "GSK3A enzyme blockers, homolog specificity check – biochemical, microfluidics, dry powder samples, set 2, selectivity assay for GSK3beta inhibitor project, dose response (AID 623978)", "type": "functional"}, "[11]": {"target": "Glycogen synthase kinase-3 beta (Homo sapiens, UniProt P49841)", "sequence (P49841 whole entry)": "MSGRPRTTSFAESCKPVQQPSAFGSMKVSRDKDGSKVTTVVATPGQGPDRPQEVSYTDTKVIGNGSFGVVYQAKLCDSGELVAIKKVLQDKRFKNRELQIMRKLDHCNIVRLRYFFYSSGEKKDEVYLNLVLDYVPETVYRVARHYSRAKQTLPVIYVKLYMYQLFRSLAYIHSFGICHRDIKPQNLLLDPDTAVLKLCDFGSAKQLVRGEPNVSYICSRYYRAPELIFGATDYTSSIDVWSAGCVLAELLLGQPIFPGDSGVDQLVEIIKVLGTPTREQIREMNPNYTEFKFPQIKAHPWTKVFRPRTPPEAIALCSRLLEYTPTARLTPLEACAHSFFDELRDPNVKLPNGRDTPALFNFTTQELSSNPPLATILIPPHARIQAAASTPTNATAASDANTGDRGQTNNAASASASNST", "experiment": "inhibition of human GSK3B activity – biochemical, microfluidics, dry powder samples, set 2, dose response (AID 623989)", "type": "functional"}, "[12]": {"target": "T4, Neuropeptides B/W receptor type 1 (Homo sapiens, UniProt P48145)", "T4 sequence (P48145 whole entry)": "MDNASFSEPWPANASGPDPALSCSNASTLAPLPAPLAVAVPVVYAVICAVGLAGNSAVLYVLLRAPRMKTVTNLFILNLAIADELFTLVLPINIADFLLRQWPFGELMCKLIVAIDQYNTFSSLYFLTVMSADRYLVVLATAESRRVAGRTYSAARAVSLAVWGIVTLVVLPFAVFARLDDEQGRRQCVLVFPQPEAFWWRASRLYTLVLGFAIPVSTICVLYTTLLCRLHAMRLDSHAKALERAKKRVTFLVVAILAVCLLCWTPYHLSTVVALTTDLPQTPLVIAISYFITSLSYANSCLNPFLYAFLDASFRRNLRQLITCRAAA", "experiment": "human NPBW1 receptor blockade, IC50 – cell-based, fluorescence, dose response, set 5, late-stage follow-up (AID 588566)", "type": "functional"}, "[13]": {"target": "T5, Melanin-concentrating hormone receptor 1 (Homo sapiens, UniProt Q99705)", "T5 sequence (Q99705 whole entry)": "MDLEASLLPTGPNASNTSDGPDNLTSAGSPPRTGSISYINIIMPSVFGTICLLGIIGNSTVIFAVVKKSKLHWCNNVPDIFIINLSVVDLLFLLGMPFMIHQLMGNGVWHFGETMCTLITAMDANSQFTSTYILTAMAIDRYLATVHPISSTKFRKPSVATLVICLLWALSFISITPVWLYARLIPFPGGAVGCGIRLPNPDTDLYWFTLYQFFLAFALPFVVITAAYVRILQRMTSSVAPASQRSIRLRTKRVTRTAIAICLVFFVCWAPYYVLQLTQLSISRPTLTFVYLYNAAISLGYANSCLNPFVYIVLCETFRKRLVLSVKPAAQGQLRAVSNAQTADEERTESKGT", "experiment": "Late-stage fluorescence-based counterscreen for antagonists of the G-protein coupled receptor 7 (GPR7): cell-based dose response assay to identify antagonists of the melanin-concentrating hormone receptor 1 (MCHR1) Set 5.", "type": "functional"}, "[14]": {"experiment": "Vero cell cytotoxicity, dose response, cytotoxicity control for M. tuberculosis growth inhibitor project, Vero cells, purified and synthesized compounds, set 4 (AID 504854)", "type": "functional", "conditions": "Mycobacterium tuberculosis"}, "[15]": {"experiment": "Vero cell cytotoxicity, dose response, cytotoxicity control for M. tuberculosis growth inhibitor project, Vero cells, purified and synthesized compounds, set 5 (AID 504909)", "type": "functional", "conditions": "Mycobacterium tuberculosis"}, "[16]": {"target": "T5, Melanin-concentrating hormone receptor 1", "experiment": "Late-stage fluorescence-based counterscreen for antagonists of the G-protein coupled receptor 7 (GPR7): cell-based dose response assay to identify antagonists of the melanin-concentrating hormone receptor 1 (MCHR1) Set 6.", "type": "functional"}, "[17]": {"target": "T4, Neuropeptides B/W receptor type 1", "experiment": "human NPBW1 receptor blockade, IC50 – cell-based, fluorescence, dose response, set 6, late-stage follow-up (AID 588583)", "type": "functional"}, "[18]": {"target": "Cyclin-dependent kinase 19 (Homo sapiens, UniProt Q9BWU1)", "sequence (Q9BWU1 whole entry)": "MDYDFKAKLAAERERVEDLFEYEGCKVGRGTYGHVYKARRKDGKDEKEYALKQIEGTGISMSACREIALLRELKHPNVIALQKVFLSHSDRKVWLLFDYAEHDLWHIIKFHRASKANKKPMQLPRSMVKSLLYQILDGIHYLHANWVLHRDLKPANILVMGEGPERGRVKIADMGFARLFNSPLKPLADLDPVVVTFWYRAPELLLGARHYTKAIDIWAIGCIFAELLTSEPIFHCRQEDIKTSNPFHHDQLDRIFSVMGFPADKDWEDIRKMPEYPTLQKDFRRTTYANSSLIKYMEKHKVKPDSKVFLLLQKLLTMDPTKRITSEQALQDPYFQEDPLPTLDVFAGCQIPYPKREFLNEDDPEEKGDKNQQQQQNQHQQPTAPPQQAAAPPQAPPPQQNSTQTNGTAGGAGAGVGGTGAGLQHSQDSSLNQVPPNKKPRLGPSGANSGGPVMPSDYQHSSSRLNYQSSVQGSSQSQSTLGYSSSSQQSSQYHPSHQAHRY", "experiment": "Navigating the Kinome. Panel member name: CDC2L6", "type": "functional"}, "[19]": {"target": "High affinity nerve growth factor receptor (Homo sapiens, UniProt P04629)", "sequence (P04629 whole entry)": "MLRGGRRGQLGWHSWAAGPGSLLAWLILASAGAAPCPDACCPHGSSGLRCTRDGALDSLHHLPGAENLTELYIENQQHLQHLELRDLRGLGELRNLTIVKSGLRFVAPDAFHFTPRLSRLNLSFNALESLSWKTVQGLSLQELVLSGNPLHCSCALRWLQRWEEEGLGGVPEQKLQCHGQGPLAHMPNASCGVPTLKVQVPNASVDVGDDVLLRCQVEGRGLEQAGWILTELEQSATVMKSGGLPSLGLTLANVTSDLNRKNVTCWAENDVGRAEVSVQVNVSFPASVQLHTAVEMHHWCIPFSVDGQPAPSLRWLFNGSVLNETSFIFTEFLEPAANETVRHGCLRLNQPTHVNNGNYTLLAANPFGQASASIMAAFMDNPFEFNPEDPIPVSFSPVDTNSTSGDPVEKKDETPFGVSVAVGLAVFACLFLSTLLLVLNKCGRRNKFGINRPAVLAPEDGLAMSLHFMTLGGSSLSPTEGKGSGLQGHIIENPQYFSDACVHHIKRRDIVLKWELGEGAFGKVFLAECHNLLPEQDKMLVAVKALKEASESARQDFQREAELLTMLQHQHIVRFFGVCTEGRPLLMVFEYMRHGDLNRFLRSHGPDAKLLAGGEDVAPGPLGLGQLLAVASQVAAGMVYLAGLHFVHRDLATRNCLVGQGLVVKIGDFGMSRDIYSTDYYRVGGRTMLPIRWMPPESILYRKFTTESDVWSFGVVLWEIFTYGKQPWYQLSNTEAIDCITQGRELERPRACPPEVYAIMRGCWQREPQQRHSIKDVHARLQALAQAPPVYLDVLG", "type": "functional"}},
  "note": "Calls of active or inactive are those of the source.",
  "data": [
    {"compound": "CCN(CC)CCOC(=O)c1ccc(N/C=C(/C#N)c2nc(-c3cc4ccccc4oc3=O)cs2)cc1", "values": [
      {"measurement": "IC50", "setting": "Beta Lactamase", "result": "> 59.6 µM (inactive)"},
      {"measurement": "IC50", "setting": "[1]", "result": "4.12 µM (active)"},
      {"measurement": "IC50", "setting": "Beta-lactamase [2]", "result": "> 59.6 µM (inactive)"},
      {"measurement": "IC50", "setting": "[3]", "result": "3.09 µM (active)"},
      {"measurement": "IC50", "setting": "Beta-lactamase [4]", "result": "> 59.6 µM (inactive)"},
      {"measurement": "IC50", "setting": "[5]", "result": "3.74 µM (active)"},
      {"measurement": "IC50", "setting": "Bcl-2-related protein A1", "result": "550 nM (active)"},
      {"measurement": "IC50", "setting": "[6]", "result": "3.5 µM (active)"},
      {"measurement": "IC50", "setting": "[7]", "result": "> 20 µM (inactive)"}
    ]},
    {"compound": "O=C(O)C1CC(c2ccccc2Cl)=NO1", "note": "(stereo unspecified)", "values": [
      {"measurement": "EC50", "setting": "[8]", "result": "> 100 µM (inactive)"},
      {"measurement": "EC50", "setting": "[9]", "result": "> 100 µM (inactive)"}
    ]},
    {"compound": "CCOc1ccccc1/C=N/NC(=O)c1nnn(-c2nonc2N)c1CN1CCCCCC1", "values": [
      {"measurement": "AC50", "setting": "[10]", "result": "21.9 nM (active)"},
      {"measurement": "AC50", "setting": "[11]", "result": "< 16 nM (active)"}
    ]},
    {"compound": "COc1ccc(Oc2c(Cl)c(C(=O)O)nn(-c3ccc(C(C)C)cc3)c2=O)cc1", "values": [
      {"measurement": "IC50", "setting": "[12]", "result": "> 20 µM (inactive)"},
      {"measurement": "IC50", "setting": "[13]", "result": "> 20 µM (inactive)"}
    ]},
    {"compound": "Cc1ccc(NC(=O)CSc2nc3ccccc3c(=O)[nH]2)cc1Cl", "values": [
      {"measurement": "CC50", "setting": "[14]", "result": "> 100 µM (active)"},
      {"measurement": "CC50", "setting": "[15]", "result": "> 100 µM (active)"}
    ]},
    {"compound": "N#CC(c1ccc(F)cc1Cl)c1c(Cl)cnn(Cc2cccc3ccccc23)c1=O", "note": "(stereo unspecified)", "values": [
      {"measurement": "IC50", "setting": "[16]", "result": "1.71 µM (active)"},
      {"measurement": "IC50", "setting": "[17]", "result": "1.71 µM (active)"}
    ]},
    {"compound": "O=C(Nc1cccc(C(F)(F)F)c1)Nc1cc(Cl)ccc1O", "values": [
      {"measurement": "Ki", "setting": "[18]", "result": "20 µM (active)"},
      {"measurement": "Ki", "setting": "[19]", "result": "10 µM (active)"}
    ]}
  ]
}
